# From patent US20130210755A1, “METHODS FOR INHIBITING INSECT INFESTATIONS” (ELI LILLY AND COMPANY, priority 2010, published 2013)
# Legend:
# Type in all cases: in vivo
# [1] = system: stable fly (Stomoxys calcitrans); assay: Fecal bioassay: emergence of adult stable flies from manure of horses given oral spinosad feed-through
# Procedure: (§1) A study was conducted to evaluate the efficiency of oral spinosad feed-through for controlling development of immature stages of the house fly (Musca domestica) and stable fly (Stomoxys calcitrans) in the manure of treated horses. There were five treatment groups, having three horses each. Treatment groups 1-4 were administered the following pellet formulation: […]
# (§2) Treatment groups 1-4 were provided the test substance top-dressed onto feed supplement and fed at a rate to deliver a dose, respectively, of approximately 0.6, 0.8, 1.0, and 1.2 mg spinosad/kg body weight/day, daily for the duration of the study. Treatment group 5 was the negative control group and was fed the above formulation without spinosad, and each horse in this treatment group received one ounce (28.3 g) of the negative control substance.
# (§3) Fecal samples from the three horses in each treatment group were collected on study days—1, 3, 10, and 17, and bioassayed with eggs of house flies and stable flies, and the number of adult flies that emerged from the fecal sample bioassays were determined. The concentration of spinosyn A in the fecal samples was also determined.
# (§4) Another study was carried out, similar to the above study, with a few changes. There were three spinosad administered groups, with the rates of spinosad being 0.4, 0.5, and 0.6 mg spinosad/kg of body weight. There was a positive control group, administered between 0.6 and 0.7 mg cyromazine/kg of body weight. There was also a negative control group.
# [2] = Observed adverse effects in horses under feed-through administration
# Procedure: as §1, §2, §4
# [3] = system: horn flies (Haematobia irritans); assay: Orally administered spinosad to control horn flies on cattle; conditions: flies remaining after 24 hours exposure
# Procedure: A study was conducted to evaluate the efficacy of orally administered spinosad to control horn flies (Haematobia irritans), an obligate ectoparasite of cattle. A liquid spinosad formulation was topically applied to a palatable feed ration and fed to cattle at doses of 0.03, 0.10, 0.30 and 3.0 mg/kg of body weight. The number of horn flies remaining after 24 hours exposure to the cattle in an enclosed room was determined on test days 2, 4, 9, 11, 16, 18, 23 and 25 and was compared to the number remaining for the control group. The percent reduction in horn flies was notable for the 0.30 and 3.0 mg/kg test groups.
# [4] = system: house fly (Musca domestica); assay: Fecal bioassay: emergence of adult house flies from manure of horses given oral spinosad feed-through
# Procedure: as §1, §2, §3
# Another study was carried out, similar to the above study, with a few changes. There were three spinosad administered groups, with the rates of spinosad being 0.4, 0.5, and 0.6 mg spinosad/kg of body weight. […]
# [5] = Concentration of spinosyn A in fecal samples of treated horses
# Procedure: as §2, §3, §4
compound,measurement,setting,value
Nc1nc(N)nc(NC2CC2)n1 [cyromazine],Reduction of the emergence of stable flies,"[1]; second study, horses, 0.6-0.7 mg cyromazine/kg",100%
spinosad,adverse effects,"[2]; first study, horses, 0.6-1.2 mg spinosad/kg body weight/day, daily for the study",no observed adverse effects
same,adverse effects,"[2]; second study, horses, 0.4, 0.5, 0.6 mg spinosad/kg",no observed adverse effects
same,percent reduction in horn flies vs control group,"[3]; oral 0.30 mg/kg in feed, from day 9 and on",at least 63.3%
same,percent reduction in horn flies vs control group,"[3]; oral 3.0 mg/kg in feed, all time points (days 2-25)",at least 89.2%
same,reduction in stable fly emergence,"[1]; first study, 0.6 mg spinosad/kg of body weight group, study day 17 fecal sample collection",97.25%
same,Reduction in emergence of stable fly adults,"[1]; first study, horses, all 4 spinosad treatments (0.6-1.2 mg/kg/day) at all three post-administration collections, with one exception",100%
same,reduction in stable fly emergence,"[1]; second study, 0.4 mg spinosad/kg of body weight group, study day 10 fecal sample collection",99.3%
same,Reduction of the emergence of stable flies,"[1]; second study, horses, all three spinosad groups (0.4, 0.5, 0.6 mg/kg), with one exception",100%
same,effective in preventing emergence of adult house flies,"[4]; first study, all 4 groups (0.6, 0.8, 1.0, 1.2 mg spinosad/kg body weight/day), all three post-administration collection days (3, 10, 17)",100%
same,efficacy in preventing emergence of adult house flies,"[4]; second study, all three spinosad groups (0.4, 0.5, 0.6 mg/kg), all three fecal sample collection dates",100%
same,mean spinosyn A concentration in fecal samples,"[5]; first study, 0.6 mg spinosad/kg of body weight group, all three animals",3.4 ppm
same,mean spinosyn A concentration in fecal samples,"[5]; first study, 0.8 mg spinosad/kg of body weight group, all three animals",2.9 ppm
same,mean spinosyn A concentration in fecal samples,"[5]; first study, 1.2 mg spinosad/kg of body weight group",5.5 ppm
same,concentration of spinosyn A in fecal samples (lowest single sample),"[5]; first study, one horse, 0.6 mg spinosad/kg group, study day 3",0.9 ppm
same,concentration of spinosyn A in fecal samples (highest single sample),"[5]; first study, one horse, 1.2 mg spinosad/kg group, study day 10",8.6 ppm
same,mean spinosyn A concentration in fecal samples,"[5]; second study, 0.4 mg spinosad/kg group, all three animals, all three post-administration dates",2.2 ppm
same,mean spinosyn A concentration in fecal samples,"[5]; second study, 0.5 mg spinosad/kg group, all three animals, all three post-administration dates",3.2 ppm
same,mean spinosyn A concentration in fecal samples,"[5]; second study, 0.6 mg spinosad/kg group, all three animals, all three post-administration dates",3.7 ppm
